From PubChem BioAssay (NCI)
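Here, GI50 denotes the concentration required for 50% inhibition of growth. TGI marks complete inhibition of growth.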

Experiments:
Assay in all cases: growth of human tumour cells (NCI), 384-well format
786-0 renal = tested on: 786-0 renal
BT-549 breast = tested on: BT-549 breast
CCRF-CEM leukemia = tested on: CCRF-CEM leukemia
HS 578T breast = tested on: HS 578T breast
HT29 colon = tested on: HT29 colon
MOLT-4 leukemia = tested on: MOLT-4 leukemia
NCI-H23 lung = tested on: NCI-H23 lung
NCI-H322M lung = tested on: NCI-H322M lung
RXF 393 renal = tested on: RXF 393 renal
SN12C renal = tested on: SN12C renal
SR leukemia = tested on: SR leukemia
TK-10 renal = tested on: TK-10 renal
UACC-62 melanoma = tested on: UACC-62 melanoma

## Cc1ccc2c(Nc3cccc(Cl)c3F)ncc(NC(=O)c3csc4c(N)ncnc34)c2c1
786-0 renal
  GI50: 22.2 µM
  TGI: > 100 µM
BT-549 breast
  GI50: 22.8 µM
  TGI: > 100 µM
CCRF-CEM leukemia
  GI50: 15 µM
  TGI: 34.5 µM
HS 578T breast
  GI50: 0.931 µM
  TGI: 63.4 µM
HT29 colon
  GI50: 0.127 µM
  TGI: > 100 µM
MOLT-4 leukemia
  GI50: 21.8 µM
  TGI: > 100 µM
NCI-H23 lung
  GI50: 0.0761 µM
  TGI: 4.46 µM
NCI-H322M lung
  GI50: 17.4 µM
  TGI: > 100 µM
RXF 393 renal
  GI50: 0.968 µM
  TGI: 95.7 µM
SN12C renal
  GI50: 8.16 µM
  TGI: > 100 µM
SR leukemia
  GI50: 15.1 µM
  TGI: 82.8 µM
TK-10 renal
  GI50: 8.61 µM
  TGI: 75.8 µM
UACC-62 melanoma
  GI50: 0.0251 µM
  TGI: 0.209 µM
